This is an account of results in PubChem BioAssay (NCI).

The structures appear in SMILES notation. Values joined by “and” are separate entries in the source; they are usually repeats but may differ in a detail not shown here. Equal values may be shown once.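 All cell lines were grown in 96-well plates and treated with compound for 48 hours. Abbreviation: GI50, concentration required for 50% inhibition of growth. TGI is the concentration that stops growth completely.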

Some test systems named below: DMS 114 small cell lung; DMS 273 small cell lung; HOP-18 NSCLC; KM20L2 colon; M19-MEL melanoma; SNB-78 CNS; XF 498 CNS; RXF-631 renal; MDA-N.
What all share (assay): growth of human tumour cells (NCI), 48 h

In the case of `O=C(O)CSc1n[nH]c(/C=C/c2ccccc2)n1`, the TGI with DMS 114 small cell lung, with DMS 273 small cell lung, with HOP-18 NSCLC, in the assay with KM20L2 colon, in the assay with M19-MEL melanoma and in the assay with SNB-78 CNS was over 100 µM in each case. Also, the TGI in the assay on XF 498 CNS was over 100 µM.

With `COC(=O)N1[C@H]2Cc3c(OC)c(C)c(OC)c(OC)c3[C@@H]1/C(=C\c1cc(OC)c(OC)c(C)c1OC)N(Cc1ccccc1)C2=O`, the TGI is 35.3 µM with DMS 114 small cell lung; over 100 µM with DMS 273 small cell lung; over 100 µM in the assay with HOP-18 NSCLC; over 100 µM with KM20L2 colon; 60 µM in the assay on M19-MEL melanoma.

For the compound `COc1cc(OC)cc(N2CCC(c3c(N)nc(N)nc3Cl)CC2)c1`, the TGI in the assay with DMS 273 small cell lung, in the assay with KM20L2 colon, with M19-MEL melanoma, with RXF-631 renal, in the assay with SNB-78 CNS and in the assay with XF 498 CNS was over 100 µM throughout.

For `CCCCOC1CC2(c3ccc(OC)cc3)C(=O)c3ccccc3N2O1` (configuration not stated), the TGI in the assay on DMS 114 small cell lung was 99.5 µM; with DMS 273 small cell lung, over 10 µM; with KM20L2 colon, over 10 µM; with M19-MEL melanoma, over 10 µM; with RXF-631 renal it was over 10 µM; in the assay on SNB-78 CNS it was over 10 µM. The TGI in the assay on XF 498 CNS was over 10 µM.

Take `CC(NC(=O)c1ccccc1)C(=O)N(Cc1ccccc1)Cc1ccccc1` (configuration not stated): the TGI in the assay with DMS 114 small cell lung is 53.8 µM; with DMS 273 small cell lung it was 47.1 µM; in the assay on KM20L2 colon, 90.4 µM; with M19-MEL melanoma, 67.7 µM; in the assay on SNB-78 CNS, 96.6 µM.

`O=c1cc2n(c(=O)[nH]1)C1OC(C(O)C1O)[C@@H]2CCO` (some centres not stated): the TGI in the assay with DMS 114 small cell lung, in the assay on DMS 273 small cell lung, with KM20L2 colon, with M19-MEL melanoma and in the assay with SNB-78 CNS was over 100 µM each time.

Compound `CC1=CC[C@@H]2[C@@H](CC[C@@]2(C)O)C(C)(C)[C@H]1CC[C@@H]1[C@@]2(C)CCC(=O)C(C)(C)O[C@@H]2CC[C@]1(C)O` showed a TGI in the assay with MDA-N of 57 µM.

`CC(=O)[CH-]C(=O)c1ccccc1.CC(=O)[CH-]C(=O)c1ccccc1.[Nd+3].[OH-].[OH3+]`: the GI50 in the assay on HOP-18 NSCLC, with KM20L2 colon and in the assay with M19-MEL melanoma was over 100 µM in each case. In addition, the TGI in the assay on HOP-18 NSCLC, in the assay on KM20L2 colon and in the assay with M19-MEL melanoma was over 100 µM in each case.

Turning to `COc1ccc(CNc2cc(OC)cc(OC)c2)cc1`, the TGI in the assay with DMS 114 small cell lung was over 100 µM; in the assay on DMS 273 small cell lung, over 100 µM; with HOP-18 NSCLC, over 100 µM; in the assay with KM20L2 colon it was over 100 µM; in the assay with M19-MEL melanoma, over 100 µM; in the assay on SNB-78 CNS it was 87.7 µM and 86.6 µM. Also, the TGI in the assay on XF 498 CNS was over 100 µM. In addition, the GI50 is > 100 µM and 42.3 µM in the assay on DMS 273 small cell lung; over 100 µM with HOP-18 NSCLC; > 100 µM and 49 µM in the assay on KM20L2 colon.

On to `CN(C)CCC1(C2=CCCC2)CC/C(=C\c2ccc3c(c2)OCO3)C1=O` (configuration not stated), for which the TGI turned out to be 32.7 µM with DMS 114 small cell lung; 26.4 µM with HOP-18 NSCLC; 28.6 µM with KM20L2 colon; 32.6 µM in the assay with M19-MEL melanoma; 38.7 µM in the assay with RXF-631 renal; 35 µM with SNB-78 CNS.

Regarding `COc1cc2c(cc1OC)C13CCN4CC5=CCOC(CC(=O)O)C(C5CC41)C3N2` (configuration not stated), the TGI with MDA-N was over 100 µM.

Turning to `COC(=O)OCC1OC(N2C(=O)NC(=O)C(I)C2N=[N+]=[N-])CC1OC(=O)OC` (configuration not stated), the TGI in the assay on DMS 273 small cell lung, in the assay on KM20L2 colon, in the assay with M19-MEL melanoma, in the assay on RXF-631 renal, with SNB-78 CNS and in the assay on XF 498 CNS was over 100 µM each time.

For the compound `COc1ccccc1-c1cc2c3c(nc4ccccc42)C(=O)c2cccnc2-c3n1`, in the assay on MDA-N, the GI50 was 14.9 µM and the TGI worked out at 28.5 µM.

For the compound `CN(C)CCNC(=O)c1ccc2ccc3cccnc3c2n1`, the TGI was 25.6 µM with DMS 114 small cell lung; 22.6 µM in the assay with DMS 273 small cell lung; over 100 µM in the assay with HOP-18 NSCLC; 72 µM in the assay on KM20L2 colon; over 34.8 µM in the assay on SNB-78 CNS.

As for `O=C(Cc1ccccc1)Oc1ccc2c(-c3ccccc3)c(C(=O)Nc3ccc(Cl)cc3)c(=O)oc2c1`, the TGI with DMS 114 small cell lung, in the assay with DMS 273 small cell lung, in the assay on KM20L2 colon, in the assay on M19-MEL melanoma, with SNB-78 CNS and with XF 498 CNS was over 100 µM in each case.

As to `Cc1cccc(C)c1NC(=O)CCC(=O)NNC(=O)c1cc(O)c2ccccc2c1`, the TGI was 65.2 µM with DMS 114 small cell lung; over 100 µM in the assay with HOP-18 NSCLC; over 100 µM in the assay on KM20L2 colon; over 100 µM in the assay with M19-MEL melanoma; over 100 µM in the assay on XF 498 CNS.

With `COC(=O)c1cnc2nc(N3CCOCC3)[nH]n2c1=O`, the TGI with DMS 114 small cell lung, in the assay on DMS 273 small cell lung, in the assay on KM20L2 colon, with M19-MEL melanoma and in the assay with SNB-78 CNS was over 100 µM in each case.

As for `COc1nc(OC)c2c(=O)oc(-c3ccccc3)cc2n1`, the TGI with DMS 114 small cell lung, in the assay with DMS 273 small cell lung, with KM20L2 colon, in the assay with M19-MEL melanoma and in the assay with SNB-78 CNS was over 100 µM each time.

For the compound `O=S(=O)(c1cccc(C(F)(F)F)c1)N1c2ccccc2-n2cccc2C1c1cccnc1` (configuration not stated), the TGI in the assay with MDA-N was over 100 µM.

`CN(C)c1c(Cl)c(=O)oc2c1ccc1nc(-c3ccccc3)sc12` returned a TGI in the assay with MDA-N of over 100 µM.

Turning to `COc1ccc(-c2cc(C(=O)Nc3cccc(C(F)(F)F)c3)[nH]c(=S)n2)cc1`, the TGI in the assay on DMS 114 small cell lung, with DMS 273 small cell lung, in the assay with HOP-18 NSCLC, with KM20L2 colon, with M19-MEL melanoma and in the assay on SNB-78 CNS was over 100 µM in each case. In addition, in the assay with XF 498 CNS, the TGI is over 100 µM.

For the compound `O=C(NC1CCCCC1)c1c(O)[nH]c(=S)[nH]c1=O`, the TGI in the assay on DMS 114 small cell lung, in the assay with HOP-18 NSCLC, in the assay with KM20L2 colon, with M19-MEL melanoma, with RXF-631 renal and in the assay with SNB-78 CNS was over 100 µM each time.

In the case of `N#C/C(=C\c1ccc(CP(=O)(O)O)cc1)C(N)=O`, the TGI in the assay with DMS 114 small cell lung, with DMS 273 small cell lung, with HOP-18 NSCLC, in the assay on KM20L2 colon, in the assay with M19-MEL melanoma and with XF 498 CNS was over 100 µM in each case.

Take `CCOC(C)OCC#CCCBr` (configuration not stated): the TGI in the assay with DMS 114 small cell lung, in the assay with DMS 273 small cell lung, with HOP-18 NSCLC, in the assay on KM20L2 colon, in the assay with M19-MEL melanoma and in the assay with SNB-78 CNS was over 100 µM throughout.

For `O=C1CCC2(c3ccc(F)cc3)Nc3ccccc3N12` (configuration not stated), the TGI with DMS 114 small cell lung, in the assay on KM20L2 colon, in the assay on M19-MEL melanoma, in the assay with RXF-631 renal, with SNB-78 CNS and with XF 498 CNS was over 100 µM each time.

As for `C=C1C(=O)O[C@@H]2C[C@]3(C)[C@@H](C[C@H]12)[C@](C)(O)CC[C@@H]3O`, the TGI with DMS 114 small cell lung, in the assay on DMS 273 small cell lung, in the assay on KM20L2 colon, in the assay with M19-MEL melanoma, in the assay with RXF-631 renal and in the assay with SNB-78 CNS was over 100 µM in each case. Besides, the TGI with XF 498 CNS was over 100 µM.

On to `O=[N+]([O-])c1ccccc1S(=O)c1ccccc1` (configuration not stated), for which the TGI is 51.8 µM in the assay with DMS 114 small cell lung; over 100 µM in the assay with DMS 273 small cell lung; over 100 µM in the assay on M19-MEL melanoma; over 100 µM with SNB-78 CNS; over 100 µM in the assay with XF 498 CNS.

In turn, `O=C(NO)c1ccc(C(=O)NO)cc1` registered a TGI in the assay with MDA-N of over 100 µM.

Turning to `O=CC1=CCCC2(C1)OCCO2`, the TGI in the assay on DMS 114 small cell lung, with DMS 273 small cell lung, with M19-MEL melanoma, in the assay with RXF-631 renal, in the assay with SNB-78 CNS and in the assay on XF 498 CNS was over 100 µM each time.

Regarding `O=c1/c(=C/c2cccc3ccccc23)sc2nc3ccccc3n12`, the TGI in the assay on DMS 114 small cell lung, in the assay with DMS 273 small cell lung, in the assay with HOP-18 NSCLC, in the assay with KM20L2 colon, with M19-MEL melanoma and in the assay with RXF-631 renal was over 100 µM each time. This compound also had a TGI in the assay with SNB-78 CNS of over 100 µM.

On to `CC(=O)O[C@]1(C(C)=O)CC[C@H]2[C@@H]3C[C@H](C)C4=CC(=O)C=C[C@]4(C)[C@@]3(F)[C@@H](O)C[C@@]21C`, for which the TGI with DMS 114 small cell lung, with DMS 273 small cell lung, with KM20L2 colon, in the assay with M19-MEL melanoma, in the assay with SNB-78 CNS and in the assay with XF 498 CNS was over 100 µM throughout.

As to `[Cu+2].[Cu+2].[O-]c1ccccc1C=Nc1ccccc1[O-].[O-]c1ccccc1C=Nc1ccccc1[O-]`, the GI50 in the assay on DMS 114 small cell lung is 1.96 µM; with DMS 273 small cell lung, 2.54 µM; in the assay on HOP-18 NSCLC, 2.99 µM; with KM20L2 colon it was 8.16 µM; in the assay on M19-MEL melanoma, 1.86 µM; with SNB-78 CNS, 13.5 µM. The GI50 in the assay on XF 498 CNS was 2.67 µM. Further, the TGI in the assay on DMS 114 small cell lung stood at 5.13 µM; in the assay with DMS 273 small cell lung, 13.6 µM; in the assay on HOP-18 NSCLC, 16.6 µM; in the assay with KM20L2 colon, 28 µM; with M19-MEL melanoma, 3.69 µM; in the assay on SNB-78 CNS, 36.4 µM. In the assay on XF 498 CNS, this compound came in with a TGI of 7.16 µM.
